The source made the active and inactive calls.
Assays:
NADPH oxidase 1 = biological target: T1, NADPH oxidase 1 (Homo sapiens, UniProt Q9Y5S8); assay: Late-stage luminescence-based cell-based dose response assay to identify inhibitors of NADPH oxidase 1 (NOX1): Purchased analogs 2.; type: functional
T1 sequence (Q9Y5S8 whole entry): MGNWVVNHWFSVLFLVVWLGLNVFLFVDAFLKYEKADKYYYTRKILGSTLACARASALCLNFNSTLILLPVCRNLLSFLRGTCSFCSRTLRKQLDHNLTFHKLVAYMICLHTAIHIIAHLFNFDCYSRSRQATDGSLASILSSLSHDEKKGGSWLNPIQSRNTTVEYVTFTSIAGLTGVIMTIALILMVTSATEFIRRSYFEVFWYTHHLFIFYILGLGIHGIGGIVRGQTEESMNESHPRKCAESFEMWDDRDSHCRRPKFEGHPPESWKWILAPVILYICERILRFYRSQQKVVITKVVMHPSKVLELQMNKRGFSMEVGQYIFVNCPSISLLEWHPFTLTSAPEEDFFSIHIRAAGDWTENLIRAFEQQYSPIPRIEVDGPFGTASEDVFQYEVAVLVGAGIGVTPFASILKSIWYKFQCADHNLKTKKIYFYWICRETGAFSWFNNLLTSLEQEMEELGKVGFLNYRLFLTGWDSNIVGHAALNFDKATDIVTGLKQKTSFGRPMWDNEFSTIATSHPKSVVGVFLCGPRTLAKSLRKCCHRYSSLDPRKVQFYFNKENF

[1] = biological target: Photoreceptor-specific nuclear receptor (Homo sapiens, UniProt Q9Y5X4); assay: ligands suppressing NR2E3 nuclear receptor activity – biochemical, TR-FRET, dose response (AID 463256); type: functional
Chain of Photoreceptor-specific nuclear receptor (Q9Y5X4 whole entry): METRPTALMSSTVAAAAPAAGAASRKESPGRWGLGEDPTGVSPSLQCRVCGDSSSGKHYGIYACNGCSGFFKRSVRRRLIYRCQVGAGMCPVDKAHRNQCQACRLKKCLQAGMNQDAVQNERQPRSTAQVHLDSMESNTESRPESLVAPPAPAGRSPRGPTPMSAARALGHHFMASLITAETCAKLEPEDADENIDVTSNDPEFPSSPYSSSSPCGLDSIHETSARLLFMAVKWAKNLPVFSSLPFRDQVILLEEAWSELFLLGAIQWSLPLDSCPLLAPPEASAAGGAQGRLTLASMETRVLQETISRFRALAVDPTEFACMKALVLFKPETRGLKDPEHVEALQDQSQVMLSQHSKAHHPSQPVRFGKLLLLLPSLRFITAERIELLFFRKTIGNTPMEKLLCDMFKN

[2] = biological target: Peroxisome proliferator-activated receptor gamma/Nuclear receptor corepressor 2 (Homo sapiens, UniProt P37231+Q9Y618); assay: Counterscreen for NR2E3 inverse agonists: TR-FRET-based biochemical high throughput dose response assay to identify inverse agonists of the interaction between peroxisome proliferator-activated receptor gamma (PPARg) and nuclear receptor co-repressor 2 (NCOR2).; type: functional
Chain of Peroxisome proliferator-activated receptor gamma/Nuclear receptor corepressor 2 (P37231 whole entry): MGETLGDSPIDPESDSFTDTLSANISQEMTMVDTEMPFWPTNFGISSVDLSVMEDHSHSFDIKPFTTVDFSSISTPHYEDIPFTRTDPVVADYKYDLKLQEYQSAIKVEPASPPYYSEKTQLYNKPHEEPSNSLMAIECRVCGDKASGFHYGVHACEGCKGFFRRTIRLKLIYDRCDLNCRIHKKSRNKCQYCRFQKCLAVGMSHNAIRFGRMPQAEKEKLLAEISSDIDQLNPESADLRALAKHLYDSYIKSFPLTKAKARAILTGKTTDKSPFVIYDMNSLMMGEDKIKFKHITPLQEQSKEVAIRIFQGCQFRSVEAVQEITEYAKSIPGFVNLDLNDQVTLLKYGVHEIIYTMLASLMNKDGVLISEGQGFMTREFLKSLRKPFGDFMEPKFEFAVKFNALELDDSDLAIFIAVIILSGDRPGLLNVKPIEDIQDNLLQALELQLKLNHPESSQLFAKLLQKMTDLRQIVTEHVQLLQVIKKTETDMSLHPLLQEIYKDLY
Chain of Peroxisome proliferator-activated receptor gamma/Nuclear receptor corepressor 2 (Q9Y618 whole entry): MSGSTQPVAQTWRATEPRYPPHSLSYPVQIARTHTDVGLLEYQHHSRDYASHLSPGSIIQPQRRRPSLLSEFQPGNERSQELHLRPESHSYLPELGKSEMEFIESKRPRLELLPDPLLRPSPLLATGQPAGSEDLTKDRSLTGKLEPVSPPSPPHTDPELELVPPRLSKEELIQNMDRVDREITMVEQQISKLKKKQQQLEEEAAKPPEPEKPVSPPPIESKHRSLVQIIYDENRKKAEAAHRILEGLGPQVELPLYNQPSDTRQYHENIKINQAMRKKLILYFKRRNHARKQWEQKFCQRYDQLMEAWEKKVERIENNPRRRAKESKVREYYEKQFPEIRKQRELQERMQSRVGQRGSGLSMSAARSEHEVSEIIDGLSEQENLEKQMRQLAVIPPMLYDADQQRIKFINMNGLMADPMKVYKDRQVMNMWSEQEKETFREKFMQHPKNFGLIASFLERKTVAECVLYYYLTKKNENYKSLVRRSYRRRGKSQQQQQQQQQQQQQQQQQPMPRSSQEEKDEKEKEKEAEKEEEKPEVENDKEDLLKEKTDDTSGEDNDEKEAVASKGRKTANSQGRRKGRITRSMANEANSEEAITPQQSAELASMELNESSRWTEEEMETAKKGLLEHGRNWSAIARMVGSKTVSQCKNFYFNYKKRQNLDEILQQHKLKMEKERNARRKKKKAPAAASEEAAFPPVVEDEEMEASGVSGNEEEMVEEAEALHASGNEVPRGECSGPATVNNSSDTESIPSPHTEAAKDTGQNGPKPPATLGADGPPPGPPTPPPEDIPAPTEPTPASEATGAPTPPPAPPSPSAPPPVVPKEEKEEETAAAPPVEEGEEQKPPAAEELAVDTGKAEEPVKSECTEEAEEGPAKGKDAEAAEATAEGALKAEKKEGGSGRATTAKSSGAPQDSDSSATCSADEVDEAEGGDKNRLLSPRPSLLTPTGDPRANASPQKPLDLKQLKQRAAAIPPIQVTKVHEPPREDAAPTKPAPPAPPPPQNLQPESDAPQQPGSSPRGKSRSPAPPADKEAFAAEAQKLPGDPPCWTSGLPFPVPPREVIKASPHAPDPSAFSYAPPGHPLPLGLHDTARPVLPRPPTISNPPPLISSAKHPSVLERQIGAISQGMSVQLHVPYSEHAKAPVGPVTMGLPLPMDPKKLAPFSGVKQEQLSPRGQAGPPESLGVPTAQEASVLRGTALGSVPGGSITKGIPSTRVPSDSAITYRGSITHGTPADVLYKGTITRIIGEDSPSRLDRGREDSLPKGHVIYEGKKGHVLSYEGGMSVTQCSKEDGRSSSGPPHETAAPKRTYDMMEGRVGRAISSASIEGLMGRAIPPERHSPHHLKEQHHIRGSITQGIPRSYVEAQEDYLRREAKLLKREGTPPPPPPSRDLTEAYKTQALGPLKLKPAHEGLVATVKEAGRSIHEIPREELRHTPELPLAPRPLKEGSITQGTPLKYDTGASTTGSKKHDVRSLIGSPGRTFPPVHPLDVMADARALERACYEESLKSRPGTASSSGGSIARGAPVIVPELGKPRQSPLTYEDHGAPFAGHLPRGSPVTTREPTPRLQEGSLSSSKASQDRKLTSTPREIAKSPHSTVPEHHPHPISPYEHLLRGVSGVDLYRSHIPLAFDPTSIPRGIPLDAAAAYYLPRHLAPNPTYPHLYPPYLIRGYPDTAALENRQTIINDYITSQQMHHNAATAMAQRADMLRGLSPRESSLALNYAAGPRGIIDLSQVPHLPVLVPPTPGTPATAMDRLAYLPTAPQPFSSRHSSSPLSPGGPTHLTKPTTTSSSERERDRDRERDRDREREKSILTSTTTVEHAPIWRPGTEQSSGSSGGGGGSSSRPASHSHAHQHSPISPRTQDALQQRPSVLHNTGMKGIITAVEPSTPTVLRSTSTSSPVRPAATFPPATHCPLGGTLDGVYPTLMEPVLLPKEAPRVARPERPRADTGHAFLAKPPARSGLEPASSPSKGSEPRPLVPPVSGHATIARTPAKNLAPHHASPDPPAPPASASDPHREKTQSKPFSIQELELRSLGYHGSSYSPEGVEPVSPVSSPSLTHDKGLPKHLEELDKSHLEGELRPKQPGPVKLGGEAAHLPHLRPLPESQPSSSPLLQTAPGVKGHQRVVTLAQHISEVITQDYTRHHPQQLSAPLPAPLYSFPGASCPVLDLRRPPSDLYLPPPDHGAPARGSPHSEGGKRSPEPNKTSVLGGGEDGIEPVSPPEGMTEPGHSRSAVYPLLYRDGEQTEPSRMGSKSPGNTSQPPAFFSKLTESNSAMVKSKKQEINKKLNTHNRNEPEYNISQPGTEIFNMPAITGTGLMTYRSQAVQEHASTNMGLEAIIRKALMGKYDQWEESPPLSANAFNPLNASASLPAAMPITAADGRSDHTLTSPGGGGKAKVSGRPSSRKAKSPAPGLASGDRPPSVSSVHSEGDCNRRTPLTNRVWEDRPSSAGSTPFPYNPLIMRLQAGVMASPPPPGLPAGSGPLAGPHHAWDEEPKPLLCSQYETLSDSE

[3] = loss of HEK293T viability via ATP – cell-based, plate reader, dry powder, set 10, cytotoxicity control, dose response (AID 743315); type: functional; settings: HEK293
[4] = biological target: T2, Short transient receptor potential channel 4 (Mus musculus, UniProt Q9QUQ5); assay: block of DAMGO-driven TRPC4 calcium entry – cell-based, HEK293 TRPC4/mu-opioid, Fluo-4 calcium, dose response (AID 434942); type: functional;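 note: potency of inhibitors blocking the TRPC4 calcium response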
T2 sequence (Q9QUQ5 whole entry): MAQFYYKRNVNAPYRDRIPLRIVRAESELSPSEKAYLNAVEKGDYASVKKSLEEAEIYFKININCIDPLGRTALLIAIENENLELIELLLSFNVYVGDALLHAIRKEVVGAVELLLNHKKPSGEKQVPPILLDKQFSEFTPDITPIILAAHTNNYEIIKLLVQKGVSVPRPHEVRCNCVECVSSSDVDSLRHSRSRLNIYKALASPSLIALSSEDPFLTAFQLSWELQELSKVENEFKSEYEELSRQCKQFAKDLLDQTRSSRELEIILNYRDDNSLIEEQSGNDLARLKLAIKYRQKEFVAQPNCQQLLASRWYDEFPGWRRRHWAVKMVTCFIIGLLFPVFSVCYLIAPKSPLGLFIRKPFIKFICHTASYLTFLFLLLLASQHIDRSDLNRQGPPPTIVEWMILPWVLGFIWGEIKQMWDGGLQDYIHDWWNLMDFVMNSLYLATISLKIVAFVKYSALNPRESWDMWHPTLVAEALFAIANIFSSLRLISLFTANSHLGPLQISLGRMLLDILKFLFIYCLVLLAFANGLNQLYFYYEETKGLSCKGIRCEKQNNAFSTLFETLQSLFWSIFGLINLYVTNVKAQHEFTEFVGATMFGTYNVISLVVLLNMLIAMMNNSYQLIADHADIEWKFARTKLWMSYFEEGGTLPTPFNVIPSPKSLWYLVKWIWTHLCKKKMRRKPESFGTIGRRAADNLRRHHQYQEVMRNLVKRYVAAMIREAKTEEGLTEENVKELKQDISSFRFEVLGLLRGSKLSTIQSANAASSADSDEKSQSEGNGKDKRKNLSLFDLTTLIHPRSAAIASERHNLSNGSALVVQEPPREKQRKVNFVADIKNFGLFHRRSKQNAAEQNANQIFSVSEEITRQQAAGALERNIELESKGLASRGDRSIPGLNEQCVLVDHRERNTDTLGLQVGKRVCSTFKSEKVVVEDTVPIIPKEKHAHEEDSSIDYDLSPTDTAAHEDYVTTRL

[5] = antifungal activity, alamar blue, dry powder, counter-screen for C. neoformans cell wall antifungals, dose response (AID 743128); type: functional, organism-based
[6] = viability loss in Vero cells – cytotoxicity control for Vif-APOBEC3G degradation inhibitor project, dose response (AID 1117358); type: functional; settings: Vero
[7] = biological target: T3, Calpain-2 catalytic subunit (Sus scrofa, UniProt P43367); assay: m-calpain protease blockers, concentration series – biochemical, fluorogenic peptide substrate, dose response (AID 1420); type: functional
T3 sequence (P43367 whole entry): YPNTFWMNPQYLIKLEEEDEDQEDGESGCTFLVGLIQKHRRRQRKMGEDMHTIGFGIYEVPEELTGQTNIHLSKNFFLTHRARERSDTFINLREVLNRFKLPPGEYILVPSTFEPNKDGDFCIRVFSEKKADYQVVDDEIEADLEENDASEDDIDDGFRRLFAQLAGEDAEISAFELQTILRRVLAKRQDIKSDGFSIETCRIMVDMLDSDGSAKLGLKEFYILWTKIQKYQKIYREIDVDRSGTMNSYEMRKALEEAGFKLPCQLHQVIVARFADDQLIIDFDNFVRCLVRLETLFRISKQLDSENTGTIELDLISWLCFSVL

Genome polyprotein [8] = biological target: T4, Genome polyprotein (Hepatitis C virus, UniProt Q2Q167); assay: Late stage assay provider counterscreen results for the probe development effort to identify inhibitors of Hepatitis C Virus (HCV) core protein dimerization: Luminescence-based biochemical AlphaScreen assay to identify inhibitors of HCV core dimerization.; type: functional, Hepacivirus hominis
T4 sequence (Q2Q167 whole entry): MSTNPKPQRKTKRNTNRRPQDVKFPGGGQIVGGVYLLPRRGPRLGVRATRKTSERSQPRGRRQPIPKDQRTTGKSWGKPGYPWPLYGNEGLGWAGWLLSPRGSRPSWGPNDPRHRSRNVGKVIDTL

[9] = biological target: T5, Ubiquitin-conjugating enzyme E2 N (Homo sapiens, UniProt P61088); type: functional
T5 sequence (P61088 whole entry): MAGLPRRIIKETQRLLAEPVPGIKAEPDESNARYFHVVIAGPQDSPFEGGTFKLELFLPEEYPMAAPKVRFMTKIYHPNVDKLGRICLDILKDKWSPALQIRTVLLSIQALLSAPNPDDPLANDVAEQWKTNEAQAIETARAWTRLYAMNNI

Genome polyprotein [10] = biological target: T4, Genome polyprotein; assay: disruption of hepatitis C core self-association – biochemical, TR-FRET, dose response (AID 2159); design: species or system Hepacivirus hominis;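 note: blocks dimerization of HCV core protein measured by TR-FRET between tagged core106 pairs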
Bcl-2-related protein A1 = biological target: T6, Bcl-2-related protein A1 (Mus musculus, UniProt Q07440); type: functional;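 note: confirmatory dose–response counterscreen on Bfl-1, used to check hits from a UBC13 polyubiquitin inhibitor campaign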
T6 sequence (Q07440 whole entry): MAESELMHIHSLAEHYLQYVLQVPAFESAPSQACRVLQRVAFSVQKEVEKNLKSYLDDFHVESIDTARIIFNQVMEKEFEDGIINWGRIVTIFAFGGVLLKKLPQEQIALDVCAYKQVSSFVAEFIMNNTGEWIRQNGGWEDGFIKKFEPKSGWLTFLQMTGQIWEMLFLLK

[11] = biological target: T5, Ubiquitin-conjugating enzyme E2 N; type: functional; remark: listed apart in the source
Transthyretin = Transthyretin (Homo sapiens, UniProt P02766); assay: Luminescence-based cell-based high throughput dose response assay to identify activators of Transthyretin (TTR) transcription.; type: functional
Streptokinase A = biological target: T7, Streptokinase A (Streptococcus pyogenes serotype M1, UniProt P10520); assay: viability-normalized secreted streptokinase activity reduction – plasminogen activation absorbance, OD405, dose response (AID 1914); type: functional, Streptococcus pyogenes M1 GAS;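 note: secreted streptokinase activity via plasminogen activation per viability signal from cell pellet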
T7 sequence (P10520 whole entry): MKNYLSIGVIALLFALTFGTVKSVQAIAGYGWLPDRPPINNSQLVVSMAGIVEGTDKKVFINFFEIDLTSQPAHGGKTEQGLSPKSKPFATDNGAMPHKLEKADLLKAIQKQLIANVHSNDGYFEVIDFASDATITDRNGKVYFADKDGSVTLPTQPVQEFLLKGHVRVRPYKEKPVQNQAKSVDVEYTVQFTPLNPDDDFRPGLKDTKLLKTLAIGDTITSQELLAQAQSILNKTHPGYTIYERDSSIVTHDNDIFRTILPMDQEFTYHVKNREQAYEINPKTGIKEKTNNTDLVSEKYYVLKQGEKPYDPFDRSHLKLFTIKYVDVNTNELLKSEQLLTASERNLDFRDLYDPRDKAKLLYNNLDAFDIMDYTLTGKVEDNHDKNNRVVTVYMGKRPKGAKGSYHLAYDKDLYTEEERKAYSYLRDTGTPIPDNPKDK

Streptococcus = assay: GAS UMAA2166 growth inhibition – luminescence, BacTiterGlo, counter-screen for streptokinase expression inhibitor project, dose response (AID 1915); type: functional, organism-based;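 note: potency for reduction of bacterial viability or growth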
[12] = test system: Streptococcus sp. 'group A'; assay: Streptococcus pyogenes SK(-)GAS viability under kanamycin – luminescence, BacTiterGlo, confirmation, counter-screen for streptokinase expression inhibitor project, dose response (AID 1900); type: functional, organism-based
[13] = M. tuberculosis growth inhibition, HTS (AID 449762); type: functional
[14] = viability of uninfected HEp-2 cells – cell-based, HTS, cytotoxicity control for RSV inhibitor project, dose response (AID 2410); type: functional; settings: human respiratory syncytial virus

S=C(NNC(=S)Nc1ccccc1)Nc1ccccc1
IC50 (NADPH oxidase 1): 0.321 µM (active)

CCOCCCNC(=O)c1cc(-c2ccc(Br)s2)nc2ccccc12
IC50 [1]: 6.67 µM (active)
IC50 [2]: 4.18 µM (active)

Cc1ccc(OCCn2c(C)nc3ccccc32)cc1
AC50 [3]: 40.5 µM (active)
EC50 [4]: 0.944 µM (active)
AC50 [5]: 41.6 µM (active)

O=[N+]([O-])c1ccc(NCCCNS(=O)(=O)c2ccc(Cl)cc2)c(Cl)c1
CC50 [6]: > 40 µM (active)
IC50 [7]: 3.17 µM (not active)

Cc1ccc(Cc2c(C)nc3nc(SCC(=O)NCCCN4CCCCCC4)nn3c2C)cc1
IC50 (Genome polyprotein [8]): 5 µM (active)
IC50 [9]: > 20 µM (inactive)
IC50 (Genome polyprotein [10]): 9.87 µM (active)
IC50 (Bcl-2-related protein A1): > 20 µM (inactive)
IC50 [11]: 13.2 µM (active)

COc1ccc(-c2cc(C)no2)cc1S(=O)(=O)NCc1cccc(C)c1
EC50 (Transthyretin): > 167 µM (inactive)

Oc1ccc(/C=N/n2c3ccccc3c3ccccc32)cc1
EC50 (Streptokinase A): > 150 µM (not active)
EC50 (Streptococcus): 10.8 µM (active)
EC50 [12]: 6.24 µM (active)
IC50 [13]: > 100 µM (active)
CC50 [14]: 17.2 µM (active)
